In ChEMBL document CHEMBL1144896 (2003):

How the values were obtained:
NCI-H1299 [1] = assay: hTERT-SEAP (Human telomerase reverse transcriptase-SEAP) activity in non-small cell lung cancer H1299 cell at 23 uM concentration and level of cell viability determined in MTT assay; type: functional
NCI-H1299 [2] = assay: Compound was tested for human telomerase reverse transcriptase-SEAP (hTERT-SEAP) activity in non-small cell lung cancer H1299 cell at 230.0 uM concentration; type: functional
NCI-H1299 [3] = assay: (§1) hTERT-SEAP (Human telomerase reverse transcriptase-SEAP) activity in non-small cell lung cancer H1299 cell at 2.3 uM concentration and level of cell viability determined in MTT assay; type: functional
BJ [4] = assay: hTERT-SEAP (Human telomerase reverse transcriptase-SEAP) activity in immortalized hTERT-BJI at 23 uM concentration and level of cell viability determined in MTT assay; type: functional
NCI-H1299 [5] = assay: (§2) Compound was tested for human telomerase reverse transcriptase-SEAP (hTERT-SEAP) activity in non-small cell lung cancer H1299 cell at 2.3 uM concentration; type: functional
BJ [6] = assay: hTERT-SEAP (Human telomerase reverse transcriptase-SEAP) activity in immortalized hTERT-BJI at 230.0 uM concentration and level of cell viability determined in MTT assay; type: functional
NCI-H1299 [7] = assay: as §1; type: functional; remark: listed apart in the source
NCI-H1299 [8] = assay: hTERT-SEAP (Human telomerase reverse transcriptase-SEAP) activity in non-small cell lung cancer H1299 cell at 230.0 uM concentration and level of cell viability determined in MTT assay; type: functional
BJ [9] = assay: Compound was tested for human telomerase reverse transcriptase-SEAP (hTERT-SEAP) activity in immortalized hTERT-BJI at 23 uM concentration; type: functional
NCI-H1299 [10] = assay: Compound was tested for human telomerase reverse transcriptase-SEAP (hTERT-SEAP) activity in non-small cell lung cancer H1299 cell at 23 uM concentration; type: functional
NCI-H1299 [11] = assay: as §2; type: functional; remark: listed apart in the source
BJ [12] = assay: Compound was tested for human telomerase reverse transcriptase-SEAP (hTERT-SEAP) activity in immortalized hTERT-BJI at 230.0 uM concentration; type: functional
BJ [13] = assay: hTERT-SEAP (Human telomerase reverse transcriptase-SEAP) activity in immortalized hTERT-BJI at 22 uM concentration and level of cell viability determined in MTT assay; type: functional
NCI-H1299 [14] = assay: Compound was tested for human telomerase reverse transcriptase-SEAP (hTERT-SEAP) activity in non-small cell lung cancer H1299 cell at 220.0 uM concentration; type: functional
NCI-H1299 [15] = assay: hTERT-SEAP (Human telomerase reverse transcriptase-SEAP) activity in non-small cell lung cancer H1299 cell at 22 uM concentration and level of cell viability determined in MTT assay; type: functional
NCI-H1299 [16] = assay: hTERT-SEAP (Human telomerase reverse transcriptase-SEAP) activity in non-small cell lung cancer H1299 cell at 220.0 uM concentration and level of cell viability determined in MTT assay; type: functional
BJ [17] = assay: hTERT-SEAP (Human telomerase reverse transcriptase-SEAP) activity in immortalized hTERT-BJI at 2.2 uM concentration and level of cell viability determined in MTT assay; type: functional
NCI-H1299 [18] = assay: Compound was tested for human telomerase reverse transcriptase-SEAP (hTERT-SEAP) activity in non-small cell lung cancer H1299 cell at 22 uM concentration; type: functional
NCI-H1299 [19] = assay: Compound was tested for human telomerase reverse transcriptase-SEAP (hTERT-SEAP) activity in non-small cell lung cancer H1299 cell at 2.2 uM concentration; type: functional
BJ [20] = assay: hTERT-SEAP (Human telomerase reverse transcriptase-SEAP) activity in immortalized hTERT-BJI at 220.0 uM concentration and level of cell viability determined in MTT assay; type: functional
BJ [21] = assay: pPCMV-SEAP (cytomegalovirus-SEAP) activity in immortalized hTERT-BJ1 at 22 uM concentration and level of cell viability determined in MTT assay; type: functional, Homo sapiens
BJ [22] = assay: Compound was tested for human telomerase reverse transcriptase-SEAP (hTERT-SEAP) activity in immortalized hTERT-BJI at 220.0 uM concentration; type: functional
BJ [23] = assay: Compound was tested for human telomerase reverse transcriptase-SEAP (hTERT-SEAP) activity in immortalized hTERT-BJI at 22 uM concentration; type: functional
BJ [24] = assay: Compound was tested for cytomegalovirus or (pPCMV-SEAP) activity in immortalized hTERT-BJ1 at 22 uM concentration; type: functional, Homo sapiens
BJ [25] = assay: pPCMV-SEAP (cytomegalovirus-SEAP) activity in immortalized hTERT-BJ1 at 220 uM concentration and level of cell viability determined in MTT assay; type: functional, Homo sapiens
BJ [26] = assay: Compound was tested for human telomerase reverse transcriptase-SEAP (hTERT-SEAP) activity in immortalized hTERT-BJI at 2.2 uM concentration; type: functional
NCI-H1299 [27] = assay: hTERT-SEAP (Human telomerase reverse transcriptase-SEAP) activity in non-small cell lung cancer H1299 cell at 2.2 uM concentration and level of cell viability determined in MTT assay; type: functional
BJ [28] = assay: pPCMV-SEAP (cytomegalovirus-SEAP) activity in immortalized hTERT-BJ1 at 2.2 uM concentration and level of cell viability determined in MTT assay; type: functional, Homo sapiens
BJ [29] = assay: Compound was tested for cytomegalovirus or (pPCMV-SEAP) activity in immortalized hTERT-BJ1 at 2.2 uM concentration; type: functional, Homo sapiens
BJ [30] = assay: Compound was tested for cytomegalovirus or (pPCMV-SEAP) activity in immortalized hTERT-BJ1 at 220 uM concentration; type: functional, Homo sapiens
BJ [31] = assay: Compound was tested for human telomerase reverse transcriptase-SEAP (hTERT-SEAP) activity in immortalized hTERT-BJI at 190.0 uM concentration; type: functional
NCI-H1299 [32] = assay: Compound was tested for human telomerase reverse transcriptase-SEAP (hTERT-SEAP) activity in non-small cell lung cancer H1299 cell at 19 uM concentration; type: functional
BJ [33] = assay: Compound was tested for human telomerase reverse transcriptase-SEAP (hTERT-SEAP) activity in immortalized hTERT-BJI at 19 uM concentration; type: functional
NCI-H1299 [34] = assay: Compound was tested for human telomerase reverse transcriptase-SEAP (hTERT-SEAP) activity in non-small cell lung cancer H1299 cell at 190.0 uM concentration; type: functional
NCI-H1299 [35] = assay: hTERT-SEAP (Human telomerase reverse transcriptase-SEAP) activity in non-small cell lung cancer H1299 cell at 19 uM concentration and level of cell viability determined in MTT assay; type: functional
NCI-H1299 [36] = assay: Compound was tested for human telomerase reverse transcriptase-SEAP (hTERT-SEAP) activity in non-small cell lung cancer H1299 cell at 1.9 uM concentration; type: functional
NCI-H1299 [37] = assay: hTERT-SEAP (Human telomerase reverse transcriptase-SEAP) activity in non-small cell lung cancer H1299 cell at 1.9 uM concentration and level of cell viability determined in MTT assay; type: functional
NCI-H1299 [38] = assay: hTERT-SEAP (Human telomerase reverse transcriptase-SEAP) activity in non-small cell lung cancer H1299 cell at 190.0 uM concentration and level of cell viability determined in MTT assay; type: functional
BJ [39] = assay: hTERT-SEAP (Human telomerase reverse transcriptase-SEAP) activity in immortalized hTERT-BJI at 190.0 uM concentration and level of cell viability determined in MTT assay; type: functional
BJ [40] = assay: hTERT-SEAP (Human telomerase reverse transcriptase-SEAP) activity in immortalized hTERT-BJI at 19 uM concentration and level of cell viability determined in MTT assay; type: functional

## O=C1c2cccc(Sc3ccncc3)c2C(=O)c2cccc(Sc3ccncc3)c21
NCI-H1299 [1]
  Relative viability: 45%
NCI-H1299 [2]
  Relative SEAP activity: 89%
NCI-H1299 [3]
  Relative viability: 112%
BJ [4]
  Relative viability: 91%
NCI-H1299 [5]
  Relative SEAP activity: 98%
BJ [6]
  Relative viability: 55%
NCI-H1299 [7]
  Relative viability: 79%
NCI-H1299 [8]
  Relative viability: 29%
BJ [9]
  Relative SEAP activity: 133%
NCI-H1299 [10]
  Relative SEAP activity: 103%
NCI-H1299 [11]
  Relative SEAP activity: 104%
BJ [12]
  Relative SEAP activity: 121%

## O=C1c2cccc(Sc3nccc(O)n3)c2C(=O)c2cccc(Sc3nccc(O)n3)c21
BJ [13]
  Relative viability: 106%
NCI-H1299 [14]
  Relative SEAP activity: 93%
NCI-H1299 [15]
  Relative viability: 95%
NCI-H1299 [16]
  Relative viability: 51%
BJ [17]
  Relative viability: 104%
NCI-H1299 [18]
  Relative SEAP activity: 97%
NCI-H1299 [19]
  Relative SEAP activity: 92%
BJ [20]
  Relative viability: 89%
BJ [21]
  Relative viability: 118%
BJ [22]
  Relative SEAP activity: 145%
BJ [23]
  Relative SEAP activity: 116%
BJ [24]
  Relative SEAP activity: 105%
BJ [25]
  Relative viability: 78%
BJ [26]
  Relative SEAP activity: 93%
NCI-H1299 [27]
  Relative viability: 99%
BJ [28]
  Relative viability: 107%
BJ [29]
  Relative SEAP activity: 112%
BJ [30]
  Relative SEAP activity: 120%

## O=C(Oc1cccc2c1C(=O)c1cccc(OC(=O)c3ccc(Cl)cc3)c1C2=O)c1ccc(Cl)cc1
BJ [31]
  Relative SEAP activity: 107%
NCI-H1299 [32]
  Relative SEAP activity: 106%
BJ [33]
  Relative SEAP activity: 123%
NCI-H1299 [34]
  Relative SEAP activity: 97%
NCI-H1299 [35]
  Relative viability: 57%
NCI-H1299 [36]
  Relative SEAP activity: 106%
NCI-H1299 [37]
  Relative viability: 91%
NCI-H1299 [38]
  Relative viability: 31%
BJ [39]
  Relative viability: 48%
BJ [40]
  Relative viability: 89%

## O=C(Oc1cccc2c1C(=O)c1cccc(OC(=O)c3cccc(Cl)c3)c1C2=O)c1cccc(Cl)c1
BJ [31]
  Relative SEAP activity: 91%
NCI-H1299 [32]
  Relative SEAP activity: 92%
BJ [33]
  Relative SEAP activity: 152%
NCI-H1299 [34]
  Relative SEAP activity: 81%
NCI-H1299 [35]
  Relative viability: 88%
NCI-H1299 [36]
  Relative SEAP activity: 83%
NCI-H1299 [37]
  Relative viability: 98%
NCI-H1299 [38]
  Relative viability: 46%
BJ [39]
  Relative viability: 44%
BJ [40]
  Relative viability: 80%
